Patent publication US11219621B2, “Methods for treating immunodeficiency disease” (X4 Pharmaceuticals, Inc., priority 2015, dated 2022)

Experiments:
[1] = system: white blood cells (WBC), neutrophils, lymphocytes; assay: Hematologic effects of a single oral dose in the male Beagle dog; format: in vivo
Description: Three fasted male Beagle dogs received a single dose of […]-001 in aqueous solution by oral gavage at dose levels of 5, 15, and 35 mg/kg (1 dog per dose level) in a volume of 1 mL/kg. Blood samples (approximately 3 mL each) were obtained at multiple timepoints from each animal by direct venipuncture of the jugular vein and collected using Vacutainer® tubes containing K3EDTA as the anticoagulant. […] Blood samples were stored at ambient room temperature prior to automated differential analysis Body weights were determined prior to dosing on the day of test article administration. […] Hematology parameters included the following: White Blood Cell Count (WBC) Differential white blood cell count (absolute and relative) • Neutrophil • Lymphocytes • Monocytes • Eosinophils • Basophils • Large Unstained Cells (LUC) • Hematocrit (HCT) • Hemoglobin (HGB) • Mean Corpuscular Hemoglobin (MCH) • Mean Corpuscular Hemoglobin Concentration (MCHC) • Mean Corpuscular Volume (MCV) • Platelet Count (PLT) • Red Blood Cell Count (RBC) Results

[2] = molecular target: T1, CCR1 (Homo sapiens, UniProt P32246); conditions: cited from earlier work
T1 construct: expressed in transfected cells; host or cells: HEK293F
T1 sequence (P32246 1-355): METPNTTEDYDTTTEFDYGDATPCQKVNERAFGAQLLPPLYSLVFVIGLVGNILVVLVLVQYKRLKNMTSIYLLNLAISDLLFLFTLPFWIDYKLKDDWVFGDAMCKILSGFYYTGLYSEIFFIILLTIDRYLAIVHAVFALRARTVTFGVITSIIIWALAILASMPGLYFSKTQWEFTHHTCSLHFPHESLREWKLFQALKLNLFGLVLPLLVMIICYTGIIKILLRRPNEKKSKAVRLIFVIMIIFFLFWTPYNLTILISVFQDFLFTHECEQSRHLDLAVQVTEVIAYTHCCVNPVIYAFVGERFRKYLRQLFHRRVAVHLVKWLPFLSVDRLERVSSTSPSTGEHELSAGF

[3] = Clinical studies, oral administration to healthy volunteers and HIV patients
[4] = molecular target: CXCR4 (Homo sapiens, UniProt P61073); conditions: SDF-1α dose/response in calcium flux assay with increasing amounts of X4P-001; cited from earlier work
[5] = molecular target: T2, CCR7 (Homo sapiens, UniProt P32248); conditions: cited from earlier work
T2 construct: endogenous in cells
T2 sequence (P32248 25-378): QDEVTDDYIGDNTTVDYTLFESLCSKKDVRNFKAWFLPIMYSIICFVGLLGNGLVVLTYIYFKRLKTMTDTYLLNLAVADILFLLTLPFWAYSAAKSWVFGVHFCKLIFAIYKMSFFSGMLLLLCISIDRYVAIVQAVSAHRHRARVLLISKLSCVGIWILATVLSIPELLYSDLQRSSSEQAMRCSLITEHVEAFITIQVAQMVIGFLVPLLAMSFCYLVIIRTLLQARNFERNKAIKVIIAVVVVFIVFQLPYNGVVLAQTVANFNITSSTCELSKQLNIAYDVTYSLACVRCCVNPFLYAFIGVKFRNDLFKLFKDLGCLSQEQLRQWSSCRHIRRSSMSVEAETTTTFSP

[6] = molecular target: T3, CCR4 (Homo sapiens, UniProt P51679); conditions: cited from earlier work
T3 construct: expressed in transfected cells
T3 sequence (P51679 1-360): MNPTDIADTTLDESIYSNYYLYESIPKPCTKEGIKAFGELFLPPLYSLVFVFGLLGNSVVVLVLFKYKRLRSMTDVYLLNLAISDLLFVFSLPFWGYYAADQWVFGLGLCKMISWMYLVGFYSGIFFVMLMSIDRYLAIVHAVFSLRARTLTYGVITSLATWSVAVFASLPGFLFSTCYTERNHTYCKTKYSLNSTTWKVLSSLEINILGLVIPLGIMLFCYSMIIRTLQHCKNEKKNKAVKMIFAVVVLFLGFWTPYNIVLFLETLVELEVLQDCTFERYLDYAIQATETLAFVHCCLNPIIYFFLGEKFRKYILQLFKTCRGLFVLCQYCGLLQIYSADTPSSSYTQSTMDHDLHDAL

[7] = molecular target: T4, CXCR3 (Homo sapiens, UniProt P49682); conditions: cited from earlier work
T4 construct: expressed in transfected cells
T4 sequence (P49682 1-368): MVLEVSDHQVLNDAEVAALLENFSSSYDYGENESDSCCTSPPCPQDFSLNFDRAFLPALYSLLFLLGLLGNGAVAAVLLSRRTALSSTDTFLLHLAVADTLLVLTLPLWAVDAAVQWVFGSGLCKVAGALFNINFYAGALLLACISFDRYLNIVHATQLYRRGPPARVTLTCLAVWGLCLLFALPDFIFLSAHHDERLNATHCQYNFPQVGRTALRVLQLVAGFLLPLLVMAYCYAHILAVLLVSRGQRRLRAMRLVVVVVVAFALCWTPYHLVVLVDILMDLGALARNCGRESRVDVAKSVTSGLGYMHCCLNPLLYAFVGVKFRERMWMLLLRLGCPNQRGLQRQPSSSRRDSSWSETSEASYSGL

[8] = molecular target: T5, BLT1 (Homo sapiens, UniProt Q15722); conditions: cited from earlier work
T5 construct: expressed in transfected cells

[9] = single oral dose 5, 15, 35 mg/kg

T5 sequence (Q15722 whole entry): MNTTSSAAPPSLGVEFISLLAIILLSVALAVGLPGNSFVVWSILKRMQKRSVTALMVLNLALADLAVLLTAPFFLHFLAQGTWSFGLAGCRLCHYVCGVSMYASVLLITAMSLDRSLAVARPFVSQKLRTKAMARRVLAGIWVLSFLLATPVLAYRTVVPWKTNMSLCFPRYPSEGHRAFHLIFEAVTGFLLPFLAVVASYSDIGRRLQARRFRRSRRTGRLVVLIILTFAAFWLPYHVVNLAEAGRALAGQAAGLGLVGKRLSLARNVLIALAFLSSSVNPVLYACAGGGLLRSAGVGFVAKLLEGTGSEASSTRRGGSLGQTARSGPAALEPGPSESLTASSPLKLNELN
Sequence of CXCR4 (P61073 whole entry): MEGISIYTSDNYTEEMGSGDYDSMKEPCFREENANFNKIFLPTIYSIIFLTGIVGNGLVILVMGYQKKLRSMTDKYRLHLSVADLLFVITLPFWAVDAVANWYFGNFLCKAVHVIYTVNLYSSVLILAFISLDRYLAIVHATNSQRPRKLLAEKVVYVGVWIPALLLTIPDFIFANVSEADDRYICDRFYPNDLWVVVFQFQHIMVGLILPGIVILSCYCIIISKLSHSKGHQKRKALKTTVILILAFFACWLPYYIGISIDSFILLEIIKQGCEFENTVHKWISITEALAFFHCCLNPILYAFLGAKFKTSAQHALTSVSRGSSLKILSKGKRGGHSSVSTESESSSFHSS

- Other hematological effects [1, 9]: No other hematological effects
SMILES: NCCCCN(Cc1nc2ccccc2[nH]1)[C@H]1CCCc2cccnc21 [X4P-001]
- Peak elevations of WBC above baseline ([1]; 5 mg/kg dose level): 1.5 fold
- Total circulating WBC, neutrophils, and lymphocytes, increase ([1]; 5 mg/kg, all three cell counts): 1.47 × baseline
- Lymphocytes, increase ([1]; 15 mg/kg): 2.9 ×
- Neutrophils, increase ([1]; 15 mg/kg): 1.8 ×
- Lymphocytes, increase ([1]; 35 mg/kg): 1.9 ×
- Neutrophils, increase ([1]; 35 mg/kg): 2.7 ×
- Time at which increases were consistently apparent ([1]; 5, 15, and 35 mg/kg): 4 h
- Time of peak of increases ([1]; 5, 15, and 35 mg/kg, typically, occasionally earlier): ~12 h
- Peak elevations of WBC above baseline ([1]; 15 and 35 mg/kg dose levels): 1.8-2.9 fold
- WBC, neutrophil, and lymphocyte counts at 24 hours ([1]; 15 and 35 mg/kg, with evidence of return to baseline): remained elevated
- Time of maximal increases in WBC [1, 9]: 4-12 hours post-dose
- IC50 ([2]; CCR1, HEK293F-CCR1, MIP-1α/CCL3, read-out: IC50 AMD11070): > 50 µM
- Inhibitory effect on MIP1α mediated calcium flux (CCR1) [2]: little or no inhibitory effect
- Pharmacodynamic activity, circulating white blood cells (WBCs) ([3]; healthy volunteers and HIV patients): dose- and concentration-related changes
- Increases in WBC counts ([3]; human subjects, dose-dependent, FIG. 9): 2-3 ×
- Mode of inhibition of CXCR4 [4]: allosteric inhibitor
- IC50 ([5]; CCR7, CCRF-CEM, MIP-3β/CCL19, read-out: IC50 AMD11070): > 50 µM
- Inhibitory effect on MIP-3β mediated calcium flux (CCR7) [5]: little or no inhibitory effect
- IC50 ([6]; CCR4, HEK293F-CCR4-Gαq15, TARC/CCL17, read-out: IC50 AMD11070): > 50 µM
- Inhibitory effect on TARC mediated calcium flux (CCR4) [6]: little or no inhibitory effect
- IC50 ([7]; CXCR3, HEK293F-CXCR3-Gαq15, IP-10/CXCL10, read-out: IC50 AMD11070): > 50 µM
- Inhibitory effect on IP10 mediated calcium flux (CXCR3) [7]: little or no inhibitory effect
- IC50 ([8]; BLT1, CHO-S-LTB4, LTB4, ligand binding, read-out: IC50 AMD11070): > 50 µM
- Inhibitory effect on LTB4 binding to BLT1 [8]: little or no inhibitory effect
